Broadly, the IC50 is the concentration that inhibits the measured activity by half.

Holding throughout (type): binding
One experiment concerns the target T1, Plk1 PBD (Homo sapiens, UniProt P53350).
T1 construct: a plasmid encoding myc-tagged Plk1 PBD was purchased from Addgene; host or cells: HEK-293T
The experiment can be described thus: Fluorescence polarization (FP) assay, isolated Plk1 PBD. The conditions noted are these: for IC50: FP assay, average ± SEM. The method, then: (§1) Plasmids encoding the myc-tagged PBDs of Plk2 and Plk3 were generous gifts from Prof. […] The supernatant containing expressed protein was diluted into 8 mL of PBS (pH 7.4) containing protease/phosphatase inhibitor cocktail. This protein solution was added to a 1 mL bed of myc-agarose resin (Thermo Scientific, Waltham, MA, USA) and allowed to bind for 2 h at 4 °C with gentle rotation. The lysate was eluted and the resin was washed 4× with 4-(2-hydroxyethyl)-1-piperazineethanesulfonic acid (HEPES) buffered saline (HBS) containing 0.05% Tween-20, 1 mM dithiothreitol (DTT) and 1 mM ethylenediaminetetraacetic acid (EDTA). The bound PBD protein was then eluted with a 1 mg/mL solution of myc peptide ([…]) in HBS + 1 mM DTT and 1 mM EDTA. […] The concentration of the final protein solution was determined by absorbance at 280 nm and purity was determined by SDS-PAGE (sodium dodecyl sulfate-polyacrylamide gel electrophoresis) with Coomassie staining.
As previously reported, isolated PBD protein was diluted to a 2× working dilution in assay buffer (HEPES-buffered saline with 0.05% Tween-20, 1 mM DTT, and 1 mM EDTA). […] Inhibitors were serially diluted to generate 4× working dilutions in assay buffer containing 4% DMSO. 20 μL of 2× PBD solution was added to each well of a 384-well plate (0% binding controls received 20 μL of assay buffer). 10 μL of the 4× inhibitor solution (or DMSO blank) was added to corresponding wells and allowed to pre-incubate at RT for 30 min with shaking. The following sequences were utilized as fluorescent probes: 5CF-GPMQSpTPLNG-NH2 for Plk1 PBD; 5CF-GPMQTSpTPKNG-NH2 for Plk2 PBD and 5CF-PLATSpTPKNG-NH2 for Plk3 PBD [10]. Fluorescent probes were diluted to 40 nM (4×) in assay buffer and then 10 μL was added to each well. The plate was allowed to equilibrate at room temperature for (30 min) with shaking. […] The FP values were obtained in triplicate and normalized to 100% (no inhibitor) and 0% binding (no protein) controls. Normalized values were plotted versus concentration and analyzed using non-linear regression in GraphPad Prism 8 (GraphPad Software, San Diego, CA, USA) [log(inhibitor) vs. response-variable slope (four parameter) model].
(Fluorescence polarisation rises when a labelled molecule tumbles more slowly, as on binding a larger partner.)

A further experiment concerns Plk2 PBD. Briefly: Fluorescence polarization (FP) assay, isolated Plk2 PBD. The conditions noted are these: average ± SEM. The method, then:
as §1
(§2) As previously reported, isolated PBD protein was diluted to a 2× working dilution in assay buffer (HEPES-buffered saline with 0.05% Tween-20, 1 mM DTT, and 1 mM EDTA). […] Normalized values were plotted versus concentration and analyzed using non-linear regression in GraphPad Prism 8 (GraphPad Software, San Diego, CA, USA) [log(inhibitor) vs. response-variable slope (four parameter) model].

The target in a further experiment is T2, Plk3 PBD (Homo sapiens, UniProt Q9H4B4).
T2 sequence (Q9H4B4 418-646 limits assumed): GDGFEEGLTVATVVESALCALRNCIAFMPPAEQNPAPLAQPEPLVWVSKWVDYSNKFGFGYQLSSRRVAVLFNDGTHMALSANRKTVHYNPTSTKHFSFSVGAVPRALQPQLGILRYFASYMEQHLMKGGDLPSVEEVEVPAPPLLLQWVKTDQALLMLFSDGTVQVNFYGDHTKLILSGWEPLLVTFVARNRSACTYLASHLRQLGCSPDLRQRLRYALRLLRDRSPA
Briefly: Fluorescence polarization (FP) assay, isolated Plk3 PBD. As to conditions: average ± SEM. The method, then: as §1, §2

Another experiment deals with T3, full-length Plk1 (Homo sapiens, UniProt P53350).
T3 construct: a plasmid encoding myc-tagged full-length Plk1 (Addgene, Plasmid #41160); host or cells: HEK-293T (crude cytosolic lysate, not purified)
T3 sequence (P53350 whole entry): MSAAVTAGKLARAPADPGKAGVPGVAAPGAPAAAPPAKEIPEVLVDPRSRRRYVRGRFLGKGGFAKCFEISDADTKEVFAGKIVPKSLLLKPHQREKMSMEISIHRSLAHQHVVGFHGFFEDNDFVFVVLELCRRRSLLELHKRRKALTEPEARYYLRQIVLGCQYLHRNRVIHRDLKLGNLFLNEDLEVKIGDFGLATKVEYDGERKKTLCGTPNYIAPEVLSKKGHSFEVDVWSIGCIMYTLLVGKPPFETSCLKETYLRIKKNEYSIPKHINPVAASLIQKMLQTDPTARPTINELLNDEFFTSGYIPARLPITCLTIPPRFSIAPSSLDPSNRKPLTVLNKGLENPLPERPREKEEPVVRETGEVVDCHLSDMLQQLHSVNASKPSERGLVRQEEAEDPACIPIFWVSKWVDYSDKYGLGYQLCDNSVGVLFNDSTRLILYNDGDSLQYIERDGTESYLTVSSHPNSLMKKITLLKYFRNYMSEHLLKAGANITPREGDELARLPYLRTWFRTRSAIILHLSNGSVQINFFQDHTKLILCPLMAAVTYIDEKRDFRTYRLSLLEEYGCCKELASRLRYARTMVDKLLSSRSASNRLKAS
Briefly: ELISA assay using full-length Plk1. For orientation: In an ELISA, binding on a coated surface is turned into a signal by an enzyme label.

Structures are written as SMILES. Starred links: 1 amine or outer side, 2 acyl side, 3 side chain; linkers in the order of their positions; H or OH if unused. Non-standard residues stand in square brackets, D forms with d. Residues, ends and D or L forms follow the SMILES beside them. X1 = O=C([C@H](Cc1cncn1CCCCc1cn(Cc2c(F)cccc2Oc2ccccc2)nn1)N[*:1])[*:2]; X3 = O=C([C@H](Cc1cncn1CCCCc1cn(Cc2ccc(F)c(Cl)c2)nn1)N[*:1])[*:2]; X4 = O=C([C@H](Cc1cncn1CCCCc1cn(Cc2ccc(F)cc2)nn1)N[*:1])[*:2]; X2 = O=C([C@H](Cc1cncn1CCCCc1cn(Cc2ccccc2)nn1)N[*:1])[*:2]; X5 = C#CCCCCn1cncc1C[C@H](N[*:1])C(=O)[*:2]; pT = C[C@@H](OP(=O)(O)O)[C@H](N)C(=O)O; Pra = C#CC[C@H](N)C(=O)O

T1 sequence (P53350 326-603 limits assumed): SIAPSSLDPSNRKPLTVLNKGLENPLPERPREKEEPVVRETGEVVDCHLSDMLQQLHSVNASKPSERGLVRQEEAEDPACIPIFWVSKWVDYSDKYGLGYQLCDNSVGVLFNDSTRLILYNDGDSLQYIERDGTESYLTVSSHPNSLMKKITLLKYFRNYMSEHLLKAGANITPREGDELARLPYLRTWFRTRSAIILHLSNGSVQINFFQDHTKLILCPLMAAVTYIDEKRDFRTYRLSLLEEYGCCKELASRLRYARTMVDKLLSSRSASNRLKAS
Procedure for full-length Plk1: Following 48 h expression, cells were harvested, lysed in buffer (PBS, pH 7.4 with 0.5% NP-40 and protease/phosphatase inhibitor cocktail) using freeze/thaw cycles (3×) and centrifuged at 10,000× g for 10 min at 4 °C. The supernatant was removed to provide a crude cytosolic lysate containing overexpressed, myc-tagged Plk1 (total protein concentration determined by bicinchoninic acid (BCA) assay).
As previously reported [25, 26, 50] a biotinylated phosphopeptide (sequence: Biotin-Ahx-PMQS(pT)PLN-NH2) was diluted to 1 µM (from a 2 mM DMSO stock solution) in PBS (pH 7.4) and loaded onto the wells of a 96-well Neutravidin-coated plate (Pierce Biotechnology, ThermoFisher Scientific, Waltham, MA, USA) at 100 µL per well for 1 h (background control contained no biotinylated peptide). The wells were washed once with 150 µL PBST (PBS, pH 7.4 + 0.05% Tween-20), and then 100 µL of 1% BSA in PBS (pH 7.4) (blocking buffer) was added for 1 h. A cytosolic lysate-containing transiently expressed myc-tagged Plk1 protein was diluted to 300 µg/mL in PBS (pH 7.4) containing protease/phosphatase inhibitors (Pierce Biotechnology), mixed with competitive inhibitor (from a 10× stock in ~4% DMSO/PBS), and allowed to pre-incubate for 1 h (100 µL per well in a 96-well plate, 30 µg total protein). The blocked ELISA plate was washed 2× with PBST (PBS, pH 7.4 + 0.05% Tween-20) (150 µL) and the pre-incubated lysates were added to the plate and incubated (1 h). […] The wells were then washed 5× with PBST (150 µL) and incubated with Turbo TMB (3,3′,5,5′-tetramethyl benzidine substrate)-ELISA solution (Pierce Biotechnology) until the desired absorbance was reached (5–10 min). The reaction was quenched by the addition of 2 N aqueous H2SO4 and the absorbance was measured at 450 nm using a BioTek Synergy 2 96-well plate reader. Absorbance was plotted versus concentration (logM) and fit to a non-linear regression analysis using GraphPad Prism 8 software [model: log(inhibitor) vs. response-variable slope (four parameters)].

On to `CC(=O)N1CCC[C@H]1C(=O)N[C@@H](CC(C)C)C(=O)N[C@@H](Cc1cncn1CCCCc1cn(Cc2ccc(F)cc2)nn1)C(=O)N[C@@H](CO)C(=O)N[C@H](C(N)=O)[C@@H](C)OP(=O)(O)O` [Peptide 3b] (Ac-PL[X4]S[pT]-NH2), for which 100 ± 19 nM corresponded to half-maximal inhibition against Plk1 PBD (IC50).
Take `CC(=O)N1CCC[C@H]1C(=O)N[C@@H](CC(C)C)C(=O)N[C@@H](Cc1cncn1CCCCc1cn(Cc2c(F)cccc2Oc2ccccc2)nn1)C(=O)N[C@@H](CO)C(=O)N[C@H](C(N)=O)[C@@H](C)OP(=O)(O)O` [Peptide 3d] (Ac-PL[X1]S[pT]-NH2): the IC50 against Plk1 PBD was 25 ± 1.6 nM; in the experiment on Plk2 PBD, 5900 ± 420 nM; at Plk3 PBD it was 9900 ± 2200 nM; on full-length Plk1 (ELISA, myc-tagged full-length Plk1 lysate, ± SEM, read-out: IC50 (nM) against full-length Plk1), 12000 ± 2100 nM. Moreover, the “Fold-change relative to isolated PBD value” at full-length Plk1 (full-length Plk1 ELISA IC50 vs isolated PBD FP IC50) is on record as 480 ×. Besides, the “potency reduction in the full-length assay relative to the isolated PBD assay” value on full-length Plk1 (full-length Plk1 ELISA vs isolated PBD FP) is given as 480 fold.
As to `C#CC[C@H](NC(=O)[C@H](CC(C)C)NC(=O)[C@@H]1CCCN1C(C)=O)C(=O)N[C@@H](CO)C(=O)N[C@H](C(N)=O)[C@@H](C)OP(=O)(O)O` [Peptide 17] (Ac-PL[Pra]S[pT]-NH2), on Plk1 PBD (FP), the “loss of Plk1 PBD-binding affinity compared with parent peptide 1” value was approximately 2 fold. Moreover, at Plk1 PBD, the IC50 is 1000 ± 140 nM.
On to `CC(=O)N1CCC[C@H]1C(=O)N[C@@H](CC(C)C)C(=O)N[C@@H](Cc1cncn1CCCCc1cn(Cc2ccccc2)nn1)C(=O)N[C@@H](CO)C(=O)N[C@H](C(N)=O)[C@@H](C)OP(=O)(O)O` [Peptide 3a] (Ac-PL[X2]S[pT]-NH2), for which, on Plk1 PBD (FP), the “relative loss of Plk1 PBD-binding affinity versus peptide 2a” value was approximately 8 fold. The compound also registered an IC50 on Plk1 PBD of 110 ± 6.6 nM.
`CC(=O)N1CCC[C@H]1C(=O)N[C@@H](CC(C)C)C(=O)N[C@@H](Cc1cncn1CCCCc1cn(Cc2ccc(F)c(Cl)c2)nn1)C(=O)N[C@@H](CO)C(=O)N[C@H](C(N)=O)[C@@H](C)OP(=O)(O)O` [Peptide 3c] (Ac-PL[X3]S[pT]-NH2) showed an IC50 against Plk1 PBD of 130 ± 9.8 nM.
The same measure, in the same setting: then `C#CCCCCn1cncc1C[C@H](NC(=O)[C@H](CC(C)C)NC(=O)[C@@H]1CCCN1C(C)=O)C(=O)N[C@@H](CO)C(=O)N[C@H](C(N)=O)[C@@H](C)OP(=O)(O)O` [Peptide 13] (Ac-PL[X5]S[pT]-NH2), with 1100 ± 45 nM.

For the origin of these results see publication PMC6515314 (Molecules, 2019).
